Our source for the IC50 values is US7834023B2 (Portola Pharmaceuticals, Inc., priority 2006, dated 2010).

The assay deals with T1, P2Y12 receptor (Homo sapiens, UniProt Q9H244).
T1 construct: endogenous in cells; host or cells: human platelets (outdated from blood banks or fresh), apyrase-washed, whole
T1 sequence (Q9H244 whole entry): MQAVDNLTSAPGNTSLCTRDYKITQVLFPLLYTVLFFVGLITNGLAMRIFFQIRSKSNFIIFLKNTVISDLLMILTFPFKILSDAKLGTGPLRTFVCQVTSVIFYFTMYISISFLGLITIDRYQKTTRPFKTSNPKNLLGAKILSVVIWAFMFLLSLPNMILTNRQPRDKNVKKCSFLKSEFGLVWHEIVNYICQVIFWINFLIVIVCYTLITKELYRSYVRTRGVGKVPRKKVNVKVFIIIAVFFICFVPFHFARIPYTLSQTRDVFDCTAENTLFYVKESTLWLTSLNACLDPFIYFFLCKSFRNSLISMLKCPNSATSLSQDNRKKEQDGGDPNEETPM
Briefly: platelet ADP receptor binding assay (ARB): inhibition of [3H]2-MeS-ADP binding to platelets. Conditions: [3H]2-MeS-ADP binding to apyrase-washed human platelets. On the procedure: 1. The Ability of Candidate Molecules to Inhibit the Binding of [^3H]2-MeS-ADP to the […] Receptor on Platelets was Determined Using a Radioligand Binding Assay.
Utilizing this assay the potency of inhibition of such compounds with respect to [^3H]2-MeS-ADP binding to whole platelets is determined. Under the conditions described in II (3) below, the binding of [^3H]2-MeS-ADP is solely due to the interaction of this ligand with the P2Y12 receptor, in that all the specific binding measured in this assay is competable with a P2Y12 antagonist (i.e., the specific binding is reduced to background levels by competition with an excess of P2Y12 antagonist, with no competition of binding when a P2Y1 antagonist is pre-incubated with the platelet preparation). [^3H]2-MeS-ADP binding experiments are routinely performed with outdated human platelets collected by standard procedures at hospital blood banks. Apyrase-washed outdated platelets are prepared as follows (all steps at room temperature, if not indicated otherwise):
Outdated platelet suspensions are diluted with 1 volume of CGS and platelets pelleted by centrifugation at 1900×g for 45 minutes. Platelet pellets are resuspended at 3-6×10^9 platelets/ml in CGS containing 1 U/ml apyrase (grade V, Sigma, St. Louis, Mo.) and incubated for 15 minutes at 37° C. After centrifugation at 730×g for 20 minutes, pellets are resuspended in Hepes-Tyrode's buffer containing 0.1% BSA (Sigma, St. Louis, Mo.) at a concentration of 6.66×10^8 platelets/ml. Binding experiments are performed after >45 minutes resting of the platelets.
Alternatively, binding experiments are performed with fresh human platelets prepared as described in section I (Inhibition of ADP-Mediated Platelet Aggregation in vitro), except that platelets are resuspended in Hepes-Tyrode's buffer containing 0.1% BSA (Sigma, St. Louis, Mo.) at a concentration of 6.66×10^8 platelets/mil. Very similar results are obtained with fresh and outdated platelets.
A platelet ADP receptor binding assay (ARB) using the tritiated potent agonist ligand [^3H]2-MeS-ADP (Jantzen, H. M. et al. (1999) Thromb. Hemost. 81:111-117) has been adapted to the 96-well microtiter format. In an assay volume of 0.2 ml Hepes-Tyrode's buffer with 0.1% BSA and 0.6% DMSO, 1×10^8 apyrase-washed platelets are preincubated in 96-well flat bottom microtiter plates for 5 minutes with serial dilutions of test compounds before addition of 1 nM [^3H]2-MeS-ADP ([^3H]2-methylthioadenosine-5′-diphosphate, ammonium salt; specific activity 20-50 Ci/mmole, obtained by custom synthesis from Amersham Life Science, Inc., Arlington Heights, Ill., or NEN Life Science Products, Boston, Mass.). Total binding is determined in the absence of test compounds. Samples for nonspecific binding may contain 10 μM unlabelled 2-MeS-ADP (RBI, Natick, Mass.). After incubation for 15 minutes at room temperature, unbound radioligand is separated by rapid filtration and two washes with cold (4-8° C.) Binding Wash Buffer (10 mM Hepes pH 7.4, 138 mM NaCl) using a 96-well cell harvester (Minidisc 96, Skatron Instruments, Sterling, Va.) and 8×12 GF/C glassfiber filtermats (Printed Filtermat A, for 1450 Microbeta, Wallac Inc., Gaithersburg, Md.). The platelet-bound radioactivity on the filtermats is determined in a scintillation counter (Microbeta 1450, Wallac Inc., Gaithersburg, Md.). Specific binding is determined by subtraction of non-specific binding from total binding, and specific binding in the presence of test compounds is expressed as % of specific binding in the absence of test compound dilutions. IC50s were derived by non-linear regression analysis.
Turning to `CNc1cc2[nH]c(=O)n(-c3ccc(C(=O)N(CCC(=O)O)Cc4ccc(Cl)s4)cc3)c(=O)c2cc1F` [Compound 40, 3-(N-((5-chlorothiophen-2-yl)methyl)-4-(6-fluoro-7-(methylamino)-2,4-dioxo-1,2-dihydroquinazolin-3(4H)-yl)benzamido)propanoic acid], the IC50 was > 500 nM.

On to `CNc1cc2[nH]c(=O)n(-c3ccc(C(=O)NC(C(=O)O)c4ccc(Cl)s4)c(OC)c3)c(=O)c2cc1F` (centres unmarked) [Compound 42, 2-(5-chlorothiophen-2-yl)-2-(4-(6-fluoro-7-(methylamino)-2,4-dioxo-1,2-dihydroquinazolin-3(4H)-yl)-2-methoxybenzamido)acetic acid], for which the IC50 was > 500 nM.

In the case of `CNc1cc2[nH]c(=O)n(-c3ccc(C(=O)NC(C(=O)O)c4ccc(Cl)s4)c(Cl)c3)c(=O)c2cc1F` (centres unmarked) [Compound 43, 2-(2-chloro-4-(6-fluoro-7-(methylamino)-2,4-dioxo-1,2-dihydroquinazolin-3(4H)-yl)benzamido)-2-(5-chlorothiophen-2-yl)acetic acid], the IC50 was in the range of 50 to 500 nM.

On to `CNc1cc2c(=O)n(-c3ccc(C(=O)NC(C(=O)O)c4ccc(Cl)s4)cc3)c(=O)[nH]c2cc1F` (centres unmarked) [Compound 48, 2-(5-chlorothiophen-2-yl)-2-(4-(7-fluoro-6-(methylamino)-2,4-dioxo-1,2-dihydroquinazolin-3(4H)-yl)benzamido)acetic acid], for which the IC50 lay within 50 to 500 nM.

As to `CNc1cc2c(=O)n(-c3ccc(C(=O)NC(c4nnn[nH]4)c4ccc(Cl)s4)cc3)c(=O)[nH]c2cc1F` (centres unmarked) [Compound 49, N-((5-chlorothiophen-2-yl)(1H-tetrazol-5-yl)methyl)-4-(7-fluoro-6-(methylamino)-2,4-dioxo-1,2-dihydroquinazolin-3(4H)-yl)benzamide], the IC50 is > 500 nM.

As for `CNc1cc2[nH]c(=O)n(-c3ccc(C(=O)NC(C(=O)O)c4ccc(Cl)s4)cc3OC)c(=O)c2cc1F` (centres unmarked) [Compound 51, 2-(5-chlorothiophen-2-yl)-2-(4-(6-fluoro-7-(methylamino)-2,4-dioxo-1,2-dihydroquinazolin-3(4H)-yl)-3-methoxybenzamido)acetic acid], the IC50 was > 500 nM.

The compound `CNc1cc2[nH]c(=O)n(-c3ccc(C(=O)NC(c4nnn[nH]4)c4ccc(Cl)s4)cc3OC)c(=O)c2cc1F` (centres unmarked) [Compound 52, N-((5-chlorothiophen-2-yl)(1H-tetrazol-5-yl)methyl)-4-(6-fluoro-7-(methylamino)-2,4-dioxo-1,2-dihydroquinazolin-3(4H)-yl)-3-methoxybenzamide] displayed an IC50 of 50 to 500 nM.

Compound `CNc1cc2c(cc1F)C(=O)N(c1ccc(C(=O)NC(Cc3ccc(Cl)s3)C(=O)O)cc1)CO2` (centres unmarked) [Compound 57, 3-(5-chlorothiophen-2-yl)-2-(4-(6-fluoro-7-(methylamino)-4-oxo-2H-benzo[e][1,3]oxazin-3(4H)-yl)benzamido)propanoic acid] displayed an IC50 of 50 to 500 nM.

In turn, `CNc1cc2c(cc1F)C(=O)N(c1ccc(C(=O)NC(C(=O)O)c3ccccc3)cc1)CO2` (centres unmarked) [Compound 58, 2-(4-(6-fluoro-7-(methylamino)-4-oxo-2H-benzo[e][1,3]oxazin-3(4H)-yl)benzamido)-2-phenylacetic acid] had a 50% inhibitory concentration (IC50) of 50 to 500 nM.

With `CNc1cc2c(cc1F)C(=O)N(c1ccc(C(=O)NC(Cc3ccccc3)C(=O)O)cc1)CO2` (centres unmarked) [Compound 59, 2-(4-(6-fluoro-7-(methylamino)-4-oxo-2H-benzo[e][1,3]oxazin-3(4H)-yl)benzamido)-3-phenylpropanoic acid], the 50% inhibitory concentration (IC50) was > 500 nM.

`CNc1cc2c(cc1F)C(=O)N(c1ccc(C(=O)N[C@@H](Cc3ccccc3)C(=O)O)cc1)CO2` [Compound 60, (S)-2-(4-(6-fluoro-7-(methylamino)-4-oxo-2H-benzo[e][1,3]oxazin-3(4H)-yl)benzamido)-3-phenylpropanoic acid] had an IC50 of 50 to 500 nM.

Consider `CNc1cc2c(cc1F)C(=O)N(c1ccc(C(=O)NC(C(=O)O)c3cccs3)cc1)CO2` (centres unmarked) [Compound 63, 2-(4-(6-fluoro-7-(methylamino)-4-oxo-2H-benzo[e][1,3]oxazin-3(4H)-yl)benzamido)-2-(thiophen-2-yl)acetic acid], for which the half-maximal inhibitory concentration (IC50) is > 500 nM.

`CNc1cc2c(cc1F)C(=O)N(c1ccc(C(=O)NC(Cc3cccs3)C(=O)O)cc1)CO2` (centres unmarked) [Compound 64, 2-(4-(6-fluoro-7-(methylamino)-4-oxo-2H-benzo[e][1,3]oxazin-3(4H)-yl)benzamido)-3-(thiophen-2-yl)propanoic acid] registered an IC50 of 50 to 500 nM.

Turning to `CNc1cc2c(cc1F)C(=O)N(c1ccc(C(=O)N[C@H](C(=O)O)c3ccccc3)cc1)CO2` [Compound 65, (S)-2-(4-(6-fluoro-7-(methylamino)-4-oxo-2H-benzo[e][1,3]oxazin-3(4H)-yl)benzamido)-2-phenylacetic acid], the IC50 fell in the range of 50 to 500 nM.

`CNc1cc2c(cc1F)C(=O)N(c1ccc(C(=O)NC(C(=O)OC)c3ccc(Cl)s3)cc1)CO2` (centres unmarked) [Compound 66, methyl 2-(5-chlorothiophen-2-yl)-2-(4-(6-fluoro-7-(methylamino)-4-oxo-2H-benzo[e][1,3]oxazin-3(4H)-yl)benzamido)acetate]: the IC50 was 50 to 500 nM.

Take `CCOC(=O)C(NC(=O)c1ccc(N2COc3cc(NC)c(F)cc3C2=O)cc1)c1ccc(Cl)s1` (centres unmarked) [Compound 67, ethyl 2-(5-chlorothiophen-2-yl)-2-(4-(6-fluoro-7-(methylamino)-4-oxo-2H-benzo[e][1,3]oxazin-3(4H)-yl)benzamido)acetate]: the IC50 was 50 to 500 nM.

With `COc1cccc2c1OCN(c1ccc(C(=O)NC(C(=O)O)c3ccc(Cl)s3)cc1)C2=O` (centres unmarked) [Compound 68, 2-(5-chlorothiophen-2-yl)-2-(4-(8-methoxy-4-oxo-2H-benzo[e][1,3]oxazin-3(4H)-yl)benzamido)acetic acid], the IC50 is > 500 nM.

On to `Cc1ccc2c(c1)OCN(c1ccc(C(=O)NC(C(=O)O)c3ccc(Cl)s3)cc1)C2=O` (centres unmarked) [Compound 69, 2-(5-chlorothiophen-2-yl)-2-(4-(7-methyl-4-oxo-2H-benzo[e][1,3]oxazin-3(4H)-yl)benzamido)acetic acid], for which the 50% inhibitory concentration (IC50) is > 500 nM.

For `CCc1ccc2c(c1)C(=O)N(c1ccc(C(=O)NC(C(=O)O)c3ccc(Cl)s3)cc1)CO2` (centres unmarked) [Compound 72, 2-(5-chlorothiophen-2-yl)-2-(4-(6-ethyl-4-oxo-2H-benzo[e][1,3]oxazin-3(4H)-yl)benzamido)acetic acid], the IC50 is > 500 nM.

The compound `CNc1cc2c(cc1F)C(=O)N(c1ccc(C(=O)NC(c3ccc(Cl)s3)c3nnnn3C)cc1)CO2` (centres unmarked) [Compound 73, N-((5-chlorothiophen-2-yl)(1-methyl-1H-tetrazol-5-yl)methyl)-4-(6-fluoro-7-(methylamino)-4-oxo-2H-benzo[e][1,3]oxazin-3(4H)-yl)benzamide] registered an IC50 of 50 to 500 nM.

As for `COC(=O)C(NC(=O)c1ccc(N2COc3ccc(C)cc3C2=O)cc1)c1ccc(Cl)s1` (centres unmarked) [Compound 76, methyl 2-(5-chlorothiophen-2-yl)-2-(4-(6-methyl-4-oxo-2H-benzo[e][1,3]oxazin-3(4H)-yl)benzamido)acetate], the IC50 was > 500 nM.

With `Cc1ccc2c(c1)C(=O)N(c1ccc(C(=O)NC(C(=O)O)c3ccc(Cl)s3)cc1)CO2` (centres unmarked) [Compound 77, 2-(5-chlorothiophen-2-yl)-2-(4-(6-methyl-4-oxo-2H-benzo[e][1,3]oxazin-3(4H)-yl)benzamido)acetic acid], the IC50 was > 500 nM.

`CCc1ccc2c(c1)OCN(c1ccc(C(=O)NC(C(=O)O)c3ccc(Cl)s3)cc1)C2=O` (centres unmarked) [Compound 78, 2-(5-chlorothiophen-2-yl)-2-(4-(7-ethyl-4-oxo-2H-benzo[e][1,3]oxazin-3(4H)-yl)benzamido)acetic acid] had a half-maximal inhibitory concentration (IC50) of 50 to 500 nM.
